Source: the supplement of paper PMC11208160

Experiment: recombinant barcode read abundance after kanamycin selection (control-corrected) (log10(CPM+1)); higher = more efficient recombination; sequences stand for … in AGTGCAGAGAAAATCGGCCAGTTTTCTCTGCCTGCAGTCCGCATGCCGT…AGATTTATGCAGCGGACTGCCTTTCTCCCAAAGTGATAAACCGGACAGTATCATGGACCGGTTTTCCCGGTAATCCGTATTTGCAAGGTTGGTTTCACT; site = the 11-nt target
Protocol: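 Pooled E. coli target-specificity screen for the IS621 bridge recombinase. Each library plasmid pairs an 11-nt target (CT core) with a bridge RNA whose target-binding loop (9-nt LTG + 4-nt RTG) is reprogrammed; the rest of the 177-nt WT IS621 bridge RNA scaffold is fixed. The plasmid is co-electroporated with a WT donor plasmid; recombinase is induced with 0.1 mM IPTG and recombinants are selected on kanamycin. Recombinant barcodes are sequenced, converted to CPM, averaged over two biological replicates and corrected by the unselected control CPM. Molecule = full bridge RNA written as DNA: LTG = specificity nt 1-9, RTG = reverse complement of specificity nt 8-11, in the WT scaffold.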
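Further: IS621 recombinase and bridge RNA in Escherichia coli cells.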

Sequence	recombinant barcode read abundance (log10)
ACACTGTCTTGGGTTCTAACCTGTTGCGG (site ACAATGTCTCC)	0.0253
ACACTGTCTTGGGTTCTAACCTGTTGCGG (site ACACTGTCTCC)	1.49
ACACTGTCTTGGGTTCTAACCTGTTGCGG (site ACAGTGTCTCC)	0.379
ACACTGTCTTGGGTTCTAACCTGTTGCGG (site ACATTGTCTCC)	0.429
ACAGAGGCTTGGGTTCTAACCTGTTGCCG (site ACAGAGGCTCG)	1.12
ACAGAGGCTTGGGTTCTAACCTGTTGCCG (site ACTCAGGCTCG)	0.155
ACAGCCGCTTGGGTTCTAACCTGTTGCCT (site ACAGACGCTAG)	0.221
ACAGCCGCTTGGGTTCTAACCTGTTGCCT (site ACAGCCGCTAG)	1.46
ACAGCCGCTTGGGTTCTAACCTGTTGCCT (site ACAGGCGCTAG)	0.108
ACAGCCGCTTGGGTTCTAACCTGTTGCCT (site ACAGTCGCTAG)	0.118
ACAGCTTCTTGGGTTCTAACCTGTTGCCT (site ACAGCTACTAG)	0.0838
ACAGCTTCTTGGGTTCTAACCTGTTGCCT (site ACAGCTTCTAG)	1.53
ACAGGCGCTTGGGTTCTAACCTGTTGCCT (site ACAGACGCTAG)	0.858
ACAGGCGCTTGGGTTCTAACCTGTTGCCT (site ACAGCCGCTAG)	0.617
ACAGGCGCTTGGGTTCTAACCTGTTGCCT (site ACAGGCGCTAG)	0.673
ACAGGCGCTTGGGTTCTAACCTGTTGCCT (site ACAGTCGCTAG)	0.0488
ACAGGTGCTTGGGTTCTAACCTGTTGCCT (site ACAGGTGCTAG)	1.98
ACAGGTGCTTGGGTTCTAACCTGTTGCCT (site ACATGTGCTAG)	0.0807
ACAGTAGCTTGGGTTCTAACCTGTTGCTG (site ACAATAGCTCA)	0.181
ACAGTAGCTTGGGTTCTAACCTGTTGCTG (site ACACTAGCTCA)	0.0586
ACAGTAGCTTGGGTTCTAACCTGTTGCTG (site ACAGTAGCTCA)	1.87

Sequence	recombinant barcode read abundance (log10)
ACAGTAGCTTGGGTTCTAACCTGTTGCTG (site ACATTAGCTCA)	0.0402
ACAGTCGCTTGGGTTCTAACCTGTTGCCT (site ACAGACGCTAG)	0.229
ACAGTCGCTTGGGTTCTAACCTGTTGCCT (site ACAGCCGCTAG)	0.0854
ACAGTCGCTTGGGTTCTAACCTGTTGCCT (site ACAGGCGCTAG)	0
ACAGTCGCTTGGGTTCTAACCTGTTGCCT (site ACAGTCGCTAG)	1.4
ACATAAGCTTGGGTTCTAACCTGTTGCCT (site ACATAAGCTAG)	1.1
ACATAAGCTTGGGTTCTAACCTGTTGCCT (site CATCGGACTCT)	0.116
ACATATACTTGGGTTCTAACCTGTTGCTT (site ACATATACTAA)	0.0772
ACATATACTTGGGTTCTAACCTGTTGCTT (site CGTAGCCCTCC)	0.125
ACATGAACTTGGGTTCTAACCTGTTGCAT (site ACATGAACTAT)	1.38
ACATGAACTTGGGTTCTAACCTGTTGCAT (site ACATGCACTAT)	0.111
ACATGAACTTGGGTTCTAACCTGTTGCAT (site ACATGGACTAT)	0.141
ACATGAACTTGGGTTCTAACCTGTTGCAT (site ACATGTACTAT)	0.0493
ACATGACCTTGGGTTCTAACCTGTTGCTT (site ACATGACCTAA)	0.223
ACATGACCTTGGGTTCTAACCTGTTGCTT (site ATATGAGCTAA)	0.0302
ACATGGGCTTGGGTTCTAACCTGTTGCCG (site ACATGGGCTCG)	0.695
ACATGGGCTTGGGTTCTAACCTGTTGCCG (site ACATGTGCTCT)	0.266
ACATGTCCTTGGGTTCTAACCTGTTGCGT (site ACATGTCCTAA)	0.141
ACATGTCCTTGGGTTCTAACCTGTTGCGT (site ACATGTCCTAC)	2.39
ACATGTCCTTGGGTTCTAACCTGTTGCGT (site ACATGTCCTAG)	0.23
ACATGTCCTTGGGTTCTAACCTGTTGCGT (site ACATGTCCTAT)	1.48

Sequence	recombinant barcode read abundance (log10)
ACATGTGCTTGGGTTCTAACCTGTTGCAG (site ACATGGGCTCG)	0.0637
ACATGTGCTTGGGTTCTAACCTGTTGCAG (site ACATGTGCTCT)	1.72
ACATTAGCTTGGGTTCTAACCTGTTGCAA (site ACATTAGCTTT)	0.609
ACATTAGCTTGGGTTCTAACCTGTTGCAA (site ACTTTAGCTCT)	0.0541
ACCAAATCTTGGGTTCTAACCTGTTGCTA (site ACCAAATCTCG)	0.356
ACCAAATCTTGGGTTCTAACCTGTTGCTA (site ACCAAATCTTA)	0.23
ACCAAGTCTTGGGTTCTAACCTGTTGCGT (site ACCAAGTCTAC)	1.98
ACCAAGTCTTGGGTTCTAACCTGTTGCGT (site ACCAAGTCTGC)	0.326
ACCAATACTTGGGTTCTAACCTGTTGCCT (site ACCAATACTAG)	0.0309
ACCAATACTTGGGTTCTAACCTGTTGCCT (site ACCAATCCTAG)	0.122
ACCAATACTTGGGTTCTAACCTGTTGCCT (site ACCAATGCTAG)	0.939
ACCAATACTTGGGTTCTAACCTGTTGCCT (site ACCAATTCTAG)	0.0138
ACCAATGCTTGGGTTCTAACCTGTTGCCT (site ACCAATACTAG)	0.182
ACCAATGCTTGGGTTCTAACCTGTTGCCT (site ACCAATCCTAG)	0.136
ACCAATGCTTGGGTTCTAACCTGTTGCCT (site ACCAATGCTAG)	0.0431
ACCAATGCTTGGGTTCTAACCTGTTGCCT (site ACCAATTCTAG)	0.163
ACCAATTCTTGGGTTCTAACCTGTTGCCT (site ACCAATACTAG)	0.059
ACCAATTCTTGGGTTCTAACCTGTTGCCT (site ACCAATCCTAG)	0.111
ACCAATTCTTGGGTTCTAACCTGTTGCCT (site ACCAATGCTAG)	0.0727
ACCAATTCTTGGGTTCTAACCTGTTGCCT (site ACCAATTCTAG)	0.483
ACCCAACCTTGGGTTCTAACCTGTTGCCT (site ACCCAAACTAG)	0.242

Sequence	recombinant barcode read abundance (log10)
ACCCAACCTTGGGTTCTAACCTGTTGCCT (site ACCCAACCTAG)	1.58
ACCCAACCTTGGGTTCTAACCTGTTGCCT (site ACCCAAGCTAG)	0.104
ACCCAACCTTGGGTTCTAACCTGTTGCCT (site ACCCAATCTAG)	0.0366
ACCCAATCTTGGGTTCTAACCTGTTGCCT (site ACCCAAACTAG)	0.266
ACCCAATCTTGGGTTCTAACCTGTTGCCT (site ACCCAACCTAG)	0.0978
ACCCAATCTTGGGTTCTAACCTGTTGCCT (site ACCCAAGCTAG)	0.207
ACCCAATCTTGGGTTCTAACCTGTTGCCT (site ACCCAATCTAG)	1.47
ACCCACACTTGGGTTCTAACCTGTTGCCG (site ACCCACACTCG)	1.8
ACCCACACTTGGGTTCTAACCTGTTGCCG (site TCCCACACTTG)	0.111
ACCGAGACTTGGGTTCTAACCTGTTGCGG (site ACCGAGACTCC)	2.7
ACCGAGACTTGGGTTCTAACCTGTTGCGG (site AGTGAGACTCC)	0.0628
ACCGAGTCTTGGGTTCTAACCTGTTGCCT (site AACGAGTCTAG)	0.202
ACCGAGTCTTGGGTTCTAACCTGTTGCCT (site ACCGAGTCTAG)	1.85
ACCGAGTCTTGGGTTCTAACCTGTTGCCT (site AGCGAGTCTAG)	0.164
ACCGAGTCTTGGGTTCTAACCTGTTGCCT (site ATCGAGTCTAG)	0.387
ACCGCTACTTGGGTTCTAACCTGTTGCCT (site ACCGCTACTAG)	0.176
ACCGCTACTTGGGTTCTAACCTGTTGCCT (site AGCGCTACTAG)	0.0813
ACCGGGACTTGGGTTCTAACCTGTTGCCT (site ACCGAGACTAG)	0.285
ACCGGGACTTGGGTTCTAACCTGTTGCCT (site ACCGCGACTAG)	0.159
